Measured values taken from patent publication US8912162B2, “Parenteral formulations of elacytarabine derivatives” (Clavis Pharma ASA, priority 2010, dated 2014).

Tests used:
[1] = Plasma concentration of elacytarabine, Ara-C and Ara-U in patients (FIG. 2); assay type: in vivo; settings: average values for 61 patients
Source text: FIG. 2: Plasma concentration of elacytarabine, Ara-C and Ara-U (deamination metabolite of Ara-C), average values for 61 patients.

[2] = Solubility of elacytarabine in water, phosphate buffer and soybean oil based emulsions; assay type: physicochemical
Source text: Nevertheless, formulation of a therapeutically effective amount of the poorly soluble derivatives of formula (I) into a pharmaceutical composition suitable for parenteral administration represents a problem. For the sake of intravenous administration of the said derivatives, the composition of the excipients should be selected so that the said derivatives are solubilised. The cytarabine derivatives of formula (I) are amphiphilic and have poor solubility both in water and in oils. This limits the choice of potential excipients that can solubilise them.

[3] = test system: acute myeloid leukemia (AML); assay: Phase II study of single agent elacytarabine as second salvage therapy; assay type: in vivo, patients
Method: The formulation described in example 1 was administered to 61 patients in a phase II study of single agent elacytarabine as second salvage therapy for acute myeloid leukemia (AML). […] The response rate was 15%. The median overall survival was 5.3 months versus 1.5 months in the historical control. The median survival for the responders was 13.5 months. The 6 month survival rate was 44%.

[4] = test system: Cis-platin resistant cells (NHIK 3025/DDP); settings: found earlier; cited from earlier work
[5] = test system: MDR resistant cells (A549); settings: A549, found earlier; cited from earlier work

exposure to elacytarabine compared to cytarabine (Ara-C) [1]: ≥ 10 fold
solubility ([2]; aqueous buffer, phosphate buffer pH 7.4 at 25° C.): < 1 µg/mL
solubility ([2]; deionised water, 25 °C, water): < 0.1 µg/mL
dissolution in soybean oil based emulsions ([2]; earlier formulation studies): did not dissolve appropriately
Compound: CCCCCCCC/C=C/CCCCCCCC(=O)OC[C@H]1O[C@@H](n2ccc(N)nc2=O)[C@@H](O)[C@@H]1O [elacytarabine, 5′-O-(trans-9″-octadecenoyl)-1-β-D-arabinofuranosylcytosine]
tolerability ([3]; also by elderly patients): well tolerated
side effects ([3]; phase II AML patients): predictable and manageable
effect against resistant cells compared with corresponding non-resistant cell line [4]: same effect
effect against resistant cells compared with corresponding non-resistant cell line [5]: same effect
